Test results published in patent US10265378B2, “Combination therapy for head and neck cancer” (Cornell University, priority 2014, dated 2019).

Key:
[1] = Mouse serum triglyceride level measurements; assay type: in vivo; conditions: treatment for 15 weeks; compared to the UNT group
Description: Mouse serum triglyceride level measurements. Blood samples from the mice were obtained from mouse tails. The analysis of serum triglyceride levels was carried out at the Laboratory of Comparative Pathology of the Memorial Sloan-Kettering Cancer Center. UNT (n=4); 4-NQO (n=3); 4N+B (n=4); 4N+C (n=3), and 4N+B+C (n=4).

[2] = Stability of CD1530 in drinking water by HPLC; assay type: physicochemical; conditions: room temperature, final DMSO 0.8%
Description: FIG. 7. CD1530 is stable in the drinking water for at least 7 days at room temperature. CD1530 was first dissolved in 100% DMSO and subsequently diluted in the drinking water (the final concentration of DMSO was 0.8%). The same amounts of the freshly prepared CD1530 containing drinking water and the CD1530 containing water prepared 7 days earlier and stored at the room temperature were subjected to high-performance liquid chromatography (HPLC) analysis.
Drug treatments reduce tongue tumor development. All of the mice tolerated the 10 week 4-NQO treatment, and almost all of the mice survived the 15 week post 4-NQO treatment period (A). We determined that the CD1530 in the regular drinking water was stable for at least 7 days at room temperature by HPLC analysis (FIG. 7); thus, we decided to use drinking water as a delivery method because this method is effective and less laborious.

[3] = system: mouse tongue mRNA transcriptome; test: RNA-Seq analysis of the mRNA transcriptome of mouse tongues; assay type: in vivo
Description: RNA-Seq analysis of the mRNA transcriptome. One part of each mouse tongue (same position on each mouse tongue) was snap frozen in liquid N2 and stored at −70° C. until total RNA extraction. Total tissue RNA was extracted and subjected to Next-Generation Sequencing (RNA-Seq) at the Genomics Resources Core Facility, Weill Cornell Medical College. Bioinfomatics analyses were performed using the Tophat and Cufflink software. (supporting information).
RNA-Seq analysis of mRNA transcriptome. […] The GEO Accession number is GSE54246; embargoed until publication.

IL-6 = test: Immunohistochemistry of tongue epithelium: IL-6; assay type: in vivo, mouse; conditions: compared to the 4-NQO group; antibody staining
Description: (§1) The tongues were fixed, embedded in paraffin, and sectioned. Then the tissue sections were stained with various antibodies (magnification, 200×). Four to five representative areas of each tongue section from two to four mice/group were photographed and analyzed (FIGS. 12A and 12B). Interleukin-6 (IL-6) is a multifunctional cytokine that is involved in the regulation of immune responses and cellular functions. IL-6 levels are enhanced in human oral squamous cell carcinoma and IL-6 is considered a bad prognostic factor in this cancer (Expert Opin Ther Targets. 2013 January; 17(1):53-9). IL-6 protein was detected primarily in the basal layer of tongue epithelium in the UNT samples (FIG. 12A, arrows), but in the 4-NQO treated samples we observed both an increase in the protein level and an expansion of IL-6 signal to the suprabasal layers of the tongue epithelium (FIG. 12A).

MCT4 = test: Immunohistochemistry of tongue epithelium: MCT4; assay type: in vivo, mouse; conditions: compared to the 4-NQO group; antibody staining
Description: as §1

[4] = compared to the 4-NQO group, p<0.05

O=C(O)c1ccc(-c2ccc3cc(O)c(C45CC6CC(CC(C6)C4)C5)cc3c2)cc1 [CD1530]
serum triglyceride levels [1]: did not change serum triglyceride levels significantly | stable in the drinking water [2]: at least 7 days | transcript levels of DNA replication genes (MCM 2-7 and 10, DNA2, LIG1, ORC1, POLA1, PRIM2) ([3]; compared to the 4-NQO group): significantly lower transcript levels of the majority of these genes | number of genes with decreased transcript levels [3, 4]: 531 | number of genes with increased transcript levels [3, 4]: 987 | number of genes with significantly different transcript levels [3, 4]: 1518 | Cyp26a1 mRNA level ([3]; greater than in other groups, RARγ target gene): about 20 fold | IL-6 protein levels in the tongue epithelium (IL-6): lower IL-6 protein levels | MCT4 protein levels in the tongue epithelium (MCT4): lower MCT4 protein levels
